Results: patent US9175036B2, “Antimicrobial water treatment membranes and production thereof” (BEN-GURION UNVERSITY OF THE NEGEV RESEARCH AND DEVELOPMENT …, priority 2009, dated 2015)
In brackets after ≈: the same amount, converted by molar mass. Peptide text beside a SMILES is read from it.

Key:
[1] = test system: Enterobacter; format: cell-based
Method: The IC50 is determined by an essay, suitable for the specific film-forming microorganism in question. For example, in the present invention, the Enterobacter assay, which is described in detail in the methods section below, was used to determine the antimicrobial activities of the tested peptides.
Quantitative Biofilm Growth Inhibition Assay in a 96-Wells Microtiter Plate:
Enterobacter culture (50 ml) was grown in tryptic soy broth media (TBS; prepared according to manufacturer instructions) overnight at 25° C. On the next day the turbidity of the culture was measured at 600 nm (Biomate 5 UV-Vis spectrophotometer, Thermo Fisher Scientific, Waltham, Mass.) and, if necessary, TSB was added to dilute the culture until the OD was 1.
Then 96 wells polystyrene microtiter plates (flat bottom, transparent, Becton Dickinson, Franklin Lakes, New-Jersey) were filled as following: Negative control wells (without bacteria) were filled with 125 μl TSB media and 25 μl of DDW:PBS1:1 buffer solution; Positive control wells (without peptide solution) were filled with 110 μl TSB media, 25 μl of DDW:PBS1:1 buffer solution and 15 μl of Enterobacter culture solution; Wells that contained AMPs at different concentrations were filled with 110 μl TSB media, 25 μl of peptide solution and 15 μl of Enterobacter culture solution.
The plates were incubated at 25° C. overnight. On the next day the plates were gently rinsed 5 times with distilled water to remove the planktonic bacteria and then dried at room temperature for 10 minutes. Then the biofilm on the walls of the wells was dyed by adding 200 μl, of 3% crystal violet (CV) to the wells. After 15 minutes at room temperature, the plates were gently rinsed 5 times with distilled water to remove excess dye and dried at room temperature for 10 minutes (Djordjevic, Wiedmann & McLandsborough 2002). The dry plates were filled with 200 μl ethanol, covered and gently agitated (Duomax 1030 rocking platform shaker, Heidolph, Kelheim, Germany) for 1 hour. The absorbance of extracted color was measured in a plate reading spectrophotometer (Infinite M200, Tecan, Mannedorf, Switzerland) at 595 nm.
The effect of linking the arm to a peptide, on the antimicrobial activity of the peptides was assessed by measuring the peptide activity in 96-microtitter plates in solution and comparing to activities of the normal peptides. Experiments were performed in water and in 3% NaCl solution. Table 6 presents the antimicrobial activity (IC50) of peptide-arm systems, in water and in 3% NaCl solution. Values were extracted from dose-response curves.
Different concentration solutions of peptides, bought or prepared as detailed in the methods section above, were prepared by diluting a stock solution with 1% ACN. Stock solution was prepared by dissolving water soluble peptides in DDW:PBS1:1. PBS (pH=7.4) was prepared by adding to 800 ml DDW, 8 grams NaCl, 0.2 grams KCl, 1.44 grams Na2HPO4 and 0.2 grams KH2PO4.
To evaluate whether attachment of a tether to the AMPs has an effect on the inhibitory potency, a PEGylated peptide (HS-PEG-D-Modelin-1) was prepared, and its inhibitory potency compared to that of the ‘normal’ peptide All-D-Modelin-1. Peptides were diluted in 2-fold serial dilutions, and the antibacterial activity of the peptides was determined in sterile 96-multititter plates.

[2] = test system: pronase E; format: in vitro ADME
Method: Proteolytic Stability Assay of Peptides:
Stock solution (0.56 mg/ml) of each peptide was prepared by dissolving the peptide in PBS (pH=7.4). To each 90 μl of peptide solution 10 μl of enzyme solution, containing either a mixture of 0.5 μg trypsin (0.05 mg/ml) and 0.5 μg chymotrypsin (0.05 mg/ml) or 4 μg pronase E (0.4 mg/ml) in 0.001M HCl, was added. The enzymatic degradation of the peptide was monitored at controlled temperature of 25° C. by RP-HPLC with detection at 220 nm using Phenomenex C18 4.6×250 mm column with 5 μm particle size and 110 Å pore size. Elution gradient was: t=0 minutes, B=15%; t=5 minutes, B=15%; t=40 minutes, B=70%; t=42 minutes, B=95%; t=52 minutes, B=95% (flow rate 1 ml/minute).
Enzymes concentrations were determined by preliminary experiment that was performed to screen for concentrations allowing complete degradation of C-Modelin-1 within 1-2 hours. 10 μl of enzyme solution with varying concentrations were added to 90 μl of peptide solution (0.56 mg/ml) and enzymatic degradation of the peptide was monitored by RP-HPLC.
The enzymatic degradation was monitored at a fixed temperature of 25° C. by RP-HPLC at 220 nm, as described before. Elution gradient started with 85% A/15% B for 5 minutes continued with 30% A/70% B for 35 minutes and ended with 5% A-95% B for 12 minutes.
All the enzymes were used in concentrations allowing complete degradation of C-Modelin-1 within […].

[3] = test system: biofilm; experiment: Biovolume of biofilm on graft-polymerized RO membranes (FIGS. 4-6); format: cell-based; details: immobilized on RO membrane after graft polymerization and 1,4-butadiamine; FIGS. 4 and 5
Text: FIGS. 4 and 5 show the biovolume of biofilm on RO membranes modified with Cys-Modelin-1, whereas in FIG. 4: (A) is an unmodified membrane (control), (B) is after Graft polymerization (GP), (C) is after GP and 1,4-butadiamine, (D) is after GP, 1,4-butadiamine and MI (maleimide-hexanoic acid), and (E) is after GP, 1,4-butadiamine, MI and C-Modelin-1.
Another example for immobilization through multivalent system is shown in FIG. 6, showing the volume of the biofilm by graft polymerization with 0.2:0.2 M MA:PEGM and immobilization with All-D-Cys-Modelin-1. […] The inhibition was very much dependent of the graft polymerization step: Grafting by 0.2:0.2 M of monomers PEGMA:MA (see Scheme 6 for monomer structures) gave the best results.

Row | Compound | IC50 [1] | digestion first detected after [2] | peptides completely degraded after [2] | reduced biofilm growth [3]
1 | CC(C)C[C@H](NC(=O)[C@H](CCCCN)NC(=O)[C@H](CC(C)C)NC(=O)[C@H](Cc1c[nH]c2ccccc12)NC(=O)[C@H](CCCCN)NC(=O)[C@H](CCCCN)NC(=O)[C@H](C)NC(=O)[C@H](Cc1c[nH]c2ccccc12)NC(=O)[C@H](CCCCN)NC(=O)[C@H](CCCCN)NC(=O)[C@H](Cc1c[nH]c2ccccc12)NC(=O)[C@H](CC(C)C)NC(=O)[C@H](CCCCN)NC(=O)[C@@H](N)CS)C(=O)N[C@@H](Cc1c[nH]c2ccccc12)C(=O)N[C@@H](CCCCN)C(=O)N[C@@H](C)C(=O)N[C@@H](Cc1c[nH]c2ccccc12)C(=O)O [C-Modelin-1, CKLWKKWAKKWLKLWKAW] (H-CKLWKKWAKKWLKLWKAW-OH) | 11 µg/mL (≈ 4.52 µM) | 5 min | 135 min | 65%
2 | O=C(O)CCCCCN1C(=O)C=CC1=O [maleimide-hexanoic acid, 6-maleimidohexanoic acid] | – | – | – | 95%
